From the supplement of paper PMC10307832

Experiments:
Test in all cases: relative viability (nuclei count vs DMSO), 5 days (fraction); higher = more cells survive
[1] = compound: C1=CC=C2C(=C1)N=C(S2)C(C#N)C3=NC(=NC=C3)NCCC4=CN=CC=C4 + CC(=O)c1c(C)c2cnc(Nc3ccc(N4CCNCC4)cn3)nc2n(C2CCCC2)c1=O [Palbociclib] (partner 0.5 µM)
How it was run: (§1)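 Dosing by pin tool came one day after lung cancer cell lines were seeded in 1536-well plates, using either one drug or a fixed anchor-drug dose plus five library-drug doses (not always all listed) in √10 steps. After 5 days, nuclei were counted on 4× images. Relative viability is treated-well nuclei count divided by vehicle-well nuclei count, and values are medians of duplicate plates.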

CUDC-101 + Crizotinib = compound: C#Cc1cccc(Nc2ncnc3cc(OC)c(OCCCCCCC(=O)NO)cc23)c1 [CUDC-101] + C[C@@H](Oc1cc(-c2cnn(C3CCNCC3)c2)cnc1N)c1c(Cl)ccc(F)c1Cl [Crizotinib] (partner 1 µM)
How it was run: as §1

CUDC-101 + Linsitinib = compound: C#Cc1cccc(Nc2ncnc3cc(OC)c(OCCCCCCC(=O)NO)cc23)c1 [CUDC-101] + C[C@]1(O)C[C@@H](c2nc(-c3ccc4ccc(-c5ccccc5)nc4c3)c3c(N)nccn32)C1 [Linsitinib] (partner 1 µM)
How it was run: as §1

NVP-TAE684 + Lapatinib = compound: COc1cc(N2CCC(N3CCN(C)CC3)CC2)ccc1Nc1ncc(Cl)c(Nc2ccccc2S(=O)(=O)C(C)C)n1 [NVP-TAE684] + CS(=O)(=O)CCNCc1ccc(-c2ccc3ncnc(Nc4ccc(OCc5cccc(F)c5)c(Cl)c4)c3c2)o1 [Lapatinib] (partner 2 µM)
How it was run: as §1

Cell Line | relative viability ([1]; first compound 0.005 µM) | relative viability ([1]; first compound 0.01581 µM) | relative viability ([1]; first compound 0.05 µM) | relative viability ([1]; first compound 0.1581 µM) | relative viability ([1]; first compound 0.5 µM) | relative viability (CUDC-101 + Crizotinib; first compound 0.01 µM) | relative viability (CUDC-101 + Crizotinib; first compound 0.03162 µM) | relative viability (CUDC-101 + Crizotinib; first compound 0.1 µM) | relative viability (CUDC-101 + Crizotinib; first compound 0.3162 µM) | relative viability (CUDC-101 + Crizotinib; first compound 1 µM) | relative viability (CUDC-101 + Linsitinib; first compound 0.01 µM) | relative viability (CUDC-101 + Linsitinib; first compound 0.03162 µM) | relative viability (CUDC-101 + Linsitinib; first compound 0.1 µM) | relative viability (CUDC-101 + Linsitinib; first compound 0.3162 µM) | relative viability (CUDC-101 + Linsitinib; first compound 1 µM) | relative viability (NVP-TAE684 + Lapatinib; first compound 0.6325 µM) | relative viability (NVP-TAE684 + Lapatinib; first compound 2 µM) | relative viability (NVP-TAE684 + Lapatinib; first compound 0.2 µM)
NCI-H1944 | 0.314 | 0.373 | 0.293 | 0.32 | 0.318 | 1.07 | 1.09 | 0.954 | 0.918 | 0.491 | 1.27 | 0.898 | 1.14 | 1.05 | 0.849 | 0.798 | 0.607 | 
NCI-H727 | 0.508 | 0.594 | 0.64 | 0.658 | 0.673 | 0.913 | 0.931 | 0.738 | 0.647 | 0.361 | 0.204 | 0.207 | 0.308 | 0.396 | 0.242 | 0.695 | 0.346 | 0.917
NCI-H1993 | 0.651 | 0.64 | 0.699 | 0.708 | 0.694 | 0.93 | 0.783 | 0.766 | 0.754 | 0.77 | 0.755 | 0.756 | 0.738 | 0.772 | 0.705 | 0.77 | 0.7 | 
NCI-H3122 | 0.162 | 0.208 | 0.199 | 0.184 | 0.178 | 0.265 | 0.282 | 0.271 | 0.317 | 0.265 | 1.06 | 1.01 | 1.03 | 1.08 | 0.989 | 0.213 | 0.18 | 0.369
NCI-H1651 | 0.473 | 0.518 | 0.535 | 0.539 | 0.504 | 0.91 | 0.803 | 0.91 | 0.934 | 0.813 | 1.14 | 0.866 | 0.996 | 1.04 | 0.912 | 0.834 | 0.563 | 0.998
NCI-H1355 | 0.662 | 0.431 | 0.394 | 0.412 | 0.364 | 1.06 | 1.02 | 1.15 | 1.07 | 0.906 | 0.887 | 0.761 | 0.822 | 0.739 | 0.645 | 0.855 | 0.636 | 1.18
NCI-H23 |  | 0.456 | 0.528 | 0.577 | 0.411 | 0.68 | 0.442 | 0.639 | 0.547 | 0.495 | 0.667 | 0.51 | 0.606 | 0.661 | 0.435 | 1.05 | 0.512 | 1.15
HCC-366 | 0.302 | 0.44 | 0.364 | 0.375 | 0.282 | 0.531 | 0.535 | 0.557 | 0.5 | 0.372 | 0.658 | 0.344 | 0.741 | 0.607 | 0.528 | 0.932 | 0.963 | 1.58
